Results published in patent US5747500A, “Antiviral 2, 4-pyrimidinedione derivatives” (priority 1993, dated 1998).
In brackets after ≈: the same amount, converted by molar mass.

Experiments:
[1] = cytotoxicity: viability of mock-infected MT-4 host cells (MTT method); assay type: cell-based; details: human, mt-4 cells, read-out: CD50: Cytotoxic concentration that causes death of cells by 50%
Experimental: The cytotoxicity of the compounds of the present invention was assessed in parallel with their antiviral activity. It was based on the viability of mock-infected host cells as determined by the MTT methods (se J. Virol. Methods, 20, 309 (1988)).
CD50 : Cytotoxic concentration that causes death of cells by 50%

[2] = system: HIV; assay: inhibition of HIV-induced cytopathic effect in MT-4 cells (MTT method); assay type: cell-based; details: for EC50: Human immunodeficiency virus 1, MT4, HIV-infected MT-4 cells, 1000 CCID50, 4 or 5 day incubation at 37° C., MTT method, read-out: ED50: Effective concentration for the inhibition of the proliferation of HIV by 50%; for S.I.: Selectivity index (CD50/ED50): ratio CD50/ED50, MT-4 cells
Experimental: The anti-HIV assays were based on the inhibition of the virus-induced cytopathic effect in MT-4 cells as described in J. Virol. Methods, 16, 171 (1987). Briefly, MT-4 cells were suspended in culture medium at 2.5×10^5 cells/ml and infected with 1000 CCID50 (50% cell culture infective dose) of HIV. Immediately, after virus infection, 100 μl of the cell suspension was brought into each well of a flat-bottomedmicrotiter tray containing various concentrations of the test compounds. After a 4 or 5 day incubation at 37° C., the number of viable cells was determined by the 3-(4,5-dimethylthiazol-2-yl)-2,5-diphenyltetrazoliumbromide (MTT) method, as disclosed in J. Virol. Methods, 20, 309 (1988).
ED50 : Effective concentration for the inhibition of the
proliferation of HIV by 50%

| Compound | CC50 [1] [µg/mL] | EC50 [2] [µg/mL] | S.I.: Selectivity index (CD50/ED50) [2] |
| --- | --- | --- | --- |
| CCc1c(Cc2cc(C)cc(C)c2)n(CC#Cc2ccccc2)c(=O)[nH]c1=O [Example 40, 1-(3-phenyl-2-propynyl)-5-ethyl-6-(3,5-dimethylbenzyl)-2,4-pyrimidinedione] | 5.02 (≈ 13.5 µM) | < 0.009 | > 557 |
| C/C=C/Cn1c(Cc2cc(C)cc(C)c2)c(C(C)C)c(=O)[nH]c1=O [Example 41] | 21 (≈ 64.5 µM) | 0.01 (≈ 0.0306 µM) | > 2,104 |
| Cc1cc(C)cc(Cc2c(C(C)C)c(=O)[nH]c(=O)n2CC#Cc2ccccc2)c1 [Example 42, 1-(3-phenyl-2-propynyl)-5-isopropyl-6-(3,5-dimethylbenzyl)-2,4-pyrimidinedione] | 7.42 (≈ 19.2 µM) | < 0.009 | > 824 |
| C=CCn1c(C(=O)c2cc(C)cc(C)c2)c(CC)c(=O)[nH]c1=O [Example 43, 1-allyl-5-ethyl-6-(3,5-dimethylbenzoyl)-2,4-pyrimidinedione] | 54.5 (≈ 175 µM) | < 0.17 | > 320 |
| C/C=C/Cn1c(C(=O)c2cc(C)cc(C)c2)c(CC)c(=O)[nH]c1=O [Example 44] | 34.4 (≈ 105 µM) | < 0.01 | > 3,439 |
| CCc1c(C(=O)c2cc(C)cc(C)c2)n(C/C=C/c2ccccc2)c(=O)[nH]c1=O [Example 45, 1-(trans-cinnamyl)-5-ethyl-6-(3,5-dimethylbenzoyl)-2,4-pyrimidinedione] | 5.97 (≈ 15.4 µM) | < 0.009 | > 663 |
| CC/C=C/Cn1c(C(=O)c2cc(C)cc(C)c2)c(CC)c(=O)[nH]c1=O [Example 46] | 9.14 (≈ 26.8 µM) | < 0.009 | > 1,015 |
| CCc1c(C(=O)c2cc(C)cc(C)c2)n(C/C=C/CCl)c(=O)[nH]c1=O [Example 47] | 6.7 (≈ 18.6 µM) | < 0.009 | > 774 |
| C#CCn1c(C(=O)c2cc(C)cc(C)c2)c(CC)c(=O)[nH]c1=O [Example 48, 1-propargyl-5-ethyl-6-(3,5-dimethylbenzoyl)-2,4-pyrimidinedione] | 36.4 (≈ 117 µM) | < 0.39 | > 93 |
| CC#CCn1c(C(=O)c2cc(C)cc(C)c2)c(CC)c(=O)[nH]c1=O [Example 49, 1-(2-butynyl)-5-ethyl-6-(3,5-dimethylbenzoyl)-2,4-pyrimidinedione] | 5.2 (≈ 16 µM) | < 0.032 | > 162 |
| CCc1c(C(=O)c2cc(C)cc(C)c2)n(CC#Cc2ccccc2)c(=O)[nH]c1=O [Example 50, 1-(3-phenyl-2-propynyl)-5-ethyl-6-(3,5-dimethylbenzoyl)-2,4-pyrimidinedione] | 4.34 (≈ 11.2 µM) | < 0.009 | > 482 |
| C/C=C/Cn1c(C(=O)c2cc(C)cc(C)c2)c(C(C)C)c(=O)[nH]c1=O [Example 51] | 22.3 (≈ 65.4 µM) | < 0.01 | > 2,473 |
| Cc1cc(C)cc(C(=O)c2c(C(C)C)c(=O)[nH]c(=O)n2C/C=C/c2ccccc2)c1 [Example 52] | 9.75 (≈ 24.2 µM) | < 0.009 | > 1,083 |
| CC/C=C/Cn1c(C(=O)c2cc(C)cc(C)c2)c(C(C)C)c(=O)[nH]c1=O [Example 53] | 5.99 (≈ 16.9 µM) | < 0.009 | > 665 |
| COC(=O)/C=C/Cn1c(C(=O)c2cc(C)cc(C)c2)c(C(C)C)c(=O)[nH]c1=O [Example 54] | 30.1 (≈ 78.2 µM) | < 0.01 | > 3,005 |
| CC#CCn1c(C(=O)c2cc(C)cc(C)c2)c(C(C)C)c(=O)[nH]c1=O [Example 55, 1-(2-butynyl)-5-isopropyl-6-(3,5-dimethylbenzoyl)-2,4-pyrimidinedione] | 41.7 (≈ 123 µM) | < 0.32 | > 130 |
| Cc1cc(C)cc(C(=O)c2c(C(C)C)c(=O)[nH]c(=O)n2CC#Cc2ccccc2)c1 [Example 56, 1-(3-phenyl-2-propynyl)-5-isopropyl-6-(3,5-dimethylbenzoyl)-2,4-pyrimidinedione] | 6.76 (≈ 16.9 µM) | < 0.009 | > 75.1 |
| C=CCn1c(Oc2cc(C)cc(C)c2)c(CC)c(=O)[nH]c1=O [Example 57, 1-allyl-5-ethyl-6-(3,5-dimethylphenoxy)-2,4-pyrimidinedione] | 42.4 (≈ 141 µM) | < 0.32 | > 132 |

| Compound | CC50 [1] [µg/mL] | EC50 [2] [µg/mL] | S.I.: Selectivity index (CD50/ED50) [2] |
| --- | --- | --- | --- |
| CC#CCn1c(Oc2cc(C)cc(C)c2)c(CC)c(=O)[nH]c1=O [Example 58] | 48.9 (≈ 157 µM) | < 0.34 | > 143 |
| CCc1c(Oc2cc(C)cc(C)c2)n(C/C=C/c2ccccc2)c(=O)[nH]c1=O [Example 59, 1-(trans-cinnamyl)-5-ethyl-6-(3,5-dimethylphenoxy)-2,4-pyrimidinedione] | 38.6 (≈ 102 µM) | < 0.23 | > 167 |
| C#CCn1c(Oc2cc(C)cc(C)c2)c(CC)c(=O)[nH]c1=O [Example 60, 1-propargyl-5-ethyl-6-(3,5-dimethylphenoxy)-2,4-pyrimidinedione] | 15.8 (≈ 52.8 µM) | < 0.62 | > 25 |
| CCc1c(Oc2cc(C)cc(C)c2)n(CC#Cc2ccccc2)c(=O)[nH]c1=O [Example 61, 1-(3-phenyl-2-propynyl)-5-ethyl-6-(3,5-dimethylphenoxy)-2,4-pyrimidinedione] | 9.3 (≈ 24.8 µM) | < 0.009 | > 1,033 |
| CC/C=C/Cn1c(Oc2cc(C)cc(C)c2)c(CC)c(=O)[nH]c1=O [Example 62] | 8.05 (≈ 24.5 µM) | < 0.032 | > 251 |
| CCc1c(Oc2cc(C)cc(C)c2)n(C/C=C/C(=O)OC)c(=O)[nH]c1=O [Example 63] | 7.17 (≈ 20 µM) | < 0.032 | > 224 |
| C/C=C/Cn1c(Oc2cc(C)cc(C)c2)c(C(C)C)c(=O)[nH]c1=O [Example 64] | 9.89 (≈ 30.1 µM) | < 0.009 | > 1,098 |
| Cc1cc(C)cc(Oc2c(C(C)C)c(=O)[nH]c(=O)n2C/C=C/c2ccccc2)c1 [Example 65] | 8.04 (≈ 20.6 µM) | < 0.009 | > 893 |
| COC(=O)/C=C/Cn1c(Oc2cc(C)cc(C)c2)c(C(C)C)c(=O)[nH]c1=O [Example 66] | 78.6 (≈ 211 µM) | < 0.32 | > 245 |
| Cc1cc(C)cc(Oc2c(C(C)C)c(=O)[nH]c(=O)n2CC#Cc2ccccc2)c1 [Example 67, 1-(3-phenyl-2-propynyl)-5-isopropyl-6-(3,5-dimethylphenoxy)-2,4-pyrimidinedione] | 7.6 (≈ 19.6 µM) | < 0.009 | > 844 |
| C/C=C\Cn1c(C(=O)c2cc(C)cc(C)c2)c(CC)c(=O)[nH]c1=O [Example 68, 1-(cis-2-butenyl)-5-ethyl-6-(3,5-dimethylbenzoyl)-2,4-pyrimidinedione] | 8.21 (≈ 25.2 µM) | < 0.032 | > 162 |
| CCc1c(C(=O)c2cc(C)cc(C)c2)n(C/C=C\c2ccccc2)c(=O)[nH]c1=O [Example 69, 1-(cis-cinnamyl)-5-ethyl-6-(3,5-dimethylbenzoyl)-2,4-pyrimidinedione] | 8.67 (≈ 22.3 µM) | < 0.032 | > 270 |
| C/C=C\Cn1c(Oc2cc(C)cc(C)c2)c(CC)c(=O)[nH]c1=O [Example 70, 1-(cis-2-butenyl)-5-ethyl-6-(3,5-dimethylphenoxy)-2,4-pyrimidinedione] | 73.8 (≈ 235 µM) | < 0.01 | > 7,381 |
| C/C=C\Cn1c(Oc2cc(C)cc(C)c2)c(C(C)C)c(=O)[nH]c1=O [Example 71, 1-(cis-2-butenyl)-5-isopropyl-6-(3,5-dimethylphenoxy)-2,4-pyrimidinedione] | 7.71 (≈ 23.5 µM) | < 0.0155 | > 497 |
| CCOC(=O)C=CCn1c(C(=O)c2cc(C)cc(C)c2)c(CC)c(=O)[nH]c1=O [Example 72, 1-(ethoxycarbonylallyl)-5-ethyl-6-(3,5-dimethylbenzoyl)-2,4-pyrimidinedion] | 6.85 (≈ 17.8 µM) | < 0.01 | > 685 |
| CCc1c(C(=O)c2cc(C)cc(C)c2)n(CC=CC(=O)OC(C)C)c(=O)[nH]c1=O [Example 73, 1-(isopropoxycarbonylallyl)-5-ethyl-6-(3,5-dimethylbenzoyl)-2,4-pyrimidinedione] | 4.85 (≈ 12.2 µM) | < 0.01 | > 485 |
| Cc1cc(C)cc(C(=O)c2c(C(C)C)c(=O)[nH]c(=O)n2C/C=C/CN=[N+]=[N-])c1 [Example 74, 1-(4-azido-trans-2-butenyl)-5-isopropyl-6-(3,5-dimethylbenzoyl)-2,4-pyrimidinedione] | 8.59 (≈ 22.5 µM) | < 0.009 | > 954 |
| CC(=O)OC/C=C/Cn1c(C(=O)c2cc(C)cc(C)c2)c(C(C)C)c(=O)[nH]c1=O [Example 75, 1-(4-acetoxy-trans-2-butenyl)-5-isopropyl-6-(3,5-dimethylbenzoyl)-2,4-pyrimidinedione] | 58.4 (≈ 147 µM) | < 0.009 | > 6,487 |
